Measurements taken from US7662842B2, “Thiazolidinone amides, thiazolidine carboxylic acid amides, and serine amides, including polyamine conjugates thereof, as selective anti-cancer agents” (Ohio State Univesity Research Foundation, priority 2003, dated 2010).

Key:
SKMEL-188 melanoma cells = assay: Sulforhodamine B assay in melanoma cells, SKMEL-188; type: cell-based; conditions: SK-MEL-188, 48 h, SRB assay, 48 h incubation; melanoma cell line
SKMEL-188 cells = assay: Lactate dehydrogenase release assay; type: cell-based; conditions: SKMEL-188, 48 hours, FIG. 11A
Experimental: SKMEL-188 melanoma cells were incubated with Compound 4(R) at 60 μM for 48 hours. FIG. 11A is a graph showing the cytotoxicity as measured by LDH release from the cells following treatment. Data is presented as mean±SEM (n=8), *p<0.05, **p<0.005. FIG. 11B is a pair of graphs that show the DNA content, as measured by flow cytometry, of cells that were exposed to control (left) and Compound 4(R) (right).
Lactate Dehydrogenase Release Assay: SKMEL-188 cells were seeded at a density of 5000 cells per well in a 96-well flat-bottom microtiter plate. Media were changed after 12 hours and the testing compound was added at serial dilutions. Media were changed with fresh compound every 24 hours. […] Lactate dehydrogenase (LDH) in supernatants was measured using Cytotox 96 Non-Radioactive Cytotoxicity Assay (Promega, Madison, Wis.). […] At the end of incubation stop solution was added to each well and plate was read at 490 nm. Cytotoxicity of compounds was calculated using the following formula: percent cytotoxicity=experimental LDH release/maximum LDH release Experimental LDH release was calculated by subtraction of absorbance corresponding to media only from absorbance corresponding to control/compound treated cells. Maximum LDH release was calculated by subtraction of absorbance corresponding to media with added lysis solution from absorbance corresponding to cells lysed with lysis solution. […]

LNCaP cells = assay: DNA fragmentation by agarose gel electrophoresis; type: cell-based, human; conditions: treatment for 24 to […], 3-50 μM, FIGS. 4A-B
Experimental: In FIG. 4B, the dose and exposure time are indicated for compound 5 as follows: lane 1, 100 bp DNA marker; lane 2, 5 μM for 24 h; lane 3, 5 μM for 48 h; lane 4, 5 μM for 72 h; lane 5, 5 μM for 96 h; lane 6, 3 μM for 96 h; lane 7, 8 μM for 48 h; and lane 8, 8 μM for 72 h.

effector capsase-3 = assay: Activation of effector caspase-3; type: cell-based
WM-164 cells = assay: Sulforhodamine B assay in melanoma cells, WM-164; type: cell-based; conditions: Homo sapiens, WM164, read-out: IC50 WM-164; SRB assay, 48 h incubation; melanoma cell line

IC50 (SKMEL-188 melanoma cells): 570 nM
Activation of effector caspase-3 (effector capsase-3): no increase in activity
IC50 (WM-164 cells): 460 nM
Compound: CCCCCCCCCCCCCCNC(=O)[C@@H]1CSC(c2ccccc2)N1.Cl (mixture of isomers) [Compound 4, (2RS, 4R)-2-Phenylthiazolidine-4-carboxylic acid tetradecylamide Hydrochloride]
LDH released to cellular environment (SKMEL-188 cells): dramatic does-dependent increase of LDH released
DNA fragmentation (apoptosis) in LNCaP cells (LNCaP cells): induce cell apoptosis
